Tests used:
rat brain (thalamus) = assay: MRI of haemodynamic response to intracranial CGRP infusion; assay type: in vivo, rat (Sprague-Dawley); conditions: inferred from MRI time course during intracranial infusion
Excerpt: Haemodynamic contrast provided sufficient resolution to monitor convective spread of the imaging agent from the site of infusion (Supplementary Fig. 1b).
Magnetic resonance imaging
Nineteen Sprague-Dawley rats were used for in vivo MRI experiments. […]
Animals were scanned by MRI to measure the changes in haemodynamic contrast following intracranial injections. […] Breathing rate and end-tidal expired isoflurane were continuously monitored. […]
Signals were averaged over six animals in 1.5 mm square regions of interest (ROIs) positioned around the infusion cannulae tips in each animal (cf. Fig. 2d); gray shading denotes standard errors as a function of time. (b) Time courses from multiple approximately concentric ROIs (diagrammed at left) were analyzed to determine whether hemodynamic MRI has sufficient spatial resolution to monitor convection of CGRP from the infusion site. For each ROI, the delay between the start of infusion and the ob-servation of statistically significant signal changes from baseline was measured (color coded bars at right). […]

[1] = tested on: enterokinase (EK) light chain; assay: Proteolytic cleavage by enterokinase light chain (SDS-PAGE); assay type: biochemical; conditions: 10 µM sensor, 2 h, 37 °C, different EK concentrations
Description: (§1) Proteolytic cleavage reactions
(§2) Supplementary Fig. 4. Proteolytic cleavage of candidate sensors and assessment by bioas-say. (a-e) Cleavage reaction products after incubation of 10 µM sensor with or without enzyme for 2 h at 37 °C. (a) MALDI mass spectrum of sensor (1) after incubation with or without FAP […]
(§3) (b) SDS-PAGE analysis of sensor
(§4) (c) SDS-PAGE analysis of sensor (3) after incubation with different concentrations of EK light […]
(§5) (d) SDS-PAGE analysis of sen- […]
(§6) and liberation of free CGRP. (f-k) Dose-response curves of uncleaved and cleaved sensors in […]
(§7) (f) Dose-response curves for Sensors (2-4) at final assay concentrations up to 10 uM (addition of 10 µL of 100 µM solution to 90 µL medium per well in bioassay) show no receptor activation by uncleaved GFP-linker-CGRP-G sensors even at 10-fold higher concentrations than were used in cleavage assays (g-k). (g-k) Dose-response curves for reaction products from (a-e). Error bars in (f-k) denote SD of measurements performed in triplicate.
(§8) (1 picture or pasted object on this page, not shown here)

TEV protease = assay: Proteolytic cleavage by TEV protease (SDS-PAGE); assay type: biochemical; conditions: 10 µM sensor, 2 h, 37 °C
Description: as §1, §2, §3, §4, §5, §6, §7, §8

CC(C)C[C@H](NC(=O)CNC(=O)[C@H](C)NC(=O)[C@H](CC(C)C)NC(=O)[C@H](CCCNC(=N)N)NC(=O)[C@H](Cc1cnc[nH]1)NC(=O)[C@@H](NC(=O)[C@@H](NC(=O)[C@@H]1CSSC[C@H](NC(=O)[C@H](C)N)C(=O)N[C@@H](CC(=O)O)C(=O)N[C@@H]([C@@H](C)O)C(=O)N[C@@H](C)C(=O)N[C@@H]([C@@H](C)O)C(=O)N1)C(C)C)[C@@H](C)O)C(=O)N[C@@H](CC(C)C)C(=O)N[C@@H](CO)C(=O)N[C@@H](CCCNC(=N)N)C(=O)N[C@@H](CO)C(=O)NCC(=O)NCC(=O)N[C@H](C(=O)N[C@H](C(=O)N[C@@H](CCCCN)C(=O)N[C@@H](CC(N)=O)C(=O)N[C@@H](CC(N)=O)C(=O)N[C@@H](Cc1ccccc1)C(=O)N[C@H](C(=O)N1CCC[C@H]1C(=O)N[C@H](C(=O)N[C@@H](CC(N)=O)C(=O)N[C@H](C(=O)NCC(=O)N[C@@H](CO)C(=O)N[C@@H](CCCCN)C(=O)N[C@@H](C)C(=O)N[C@@H](Cc1ccccc1)C(N)=O)C(C)C)[C@@H](C)O)C(C)C)C(C)C)C(C)C [wtCGRP, calcitonin gene-related peptide]
removal or degradation in brain tissue (rat brain (thalamus)): not rapidly removed or degraded in brain tissue

cfSGFP2-DDDDK-CGRP-G [Sensor (3), recombinant fusion of cysteine-free GFP, a short linker, enterokinase site and non-amidated CGRP]
cleavage by EK light chain [1]: increasing cleavage with increasing concentrations

cfSGFP2-ENLYFQG-CGRP-G [Sensor (2), recombinant fusion of cysteine-free GFP, a short linker, TEV protease site and non-amidated CGRP]
cleavage by TEV protease (TEV protease): substantial but not complete cleavage

Reference: article PMC5146284, “Molecular imaging with engineered physiology” (Nature Communications, 2016)
